Measured values taken from BindingDB's records for doi:10.1016/0014-2999(96)00088-x (University Clinic For Psychiatry, 1996).
“And” between values parts separate entries of the source, which are not always exact repeats. Equal entries are not always repeated.

Assays:
[1] = target: T1, Gamma-aminobutyric acid receptor subunit alpha-1 (Homo sapiens, UniProt P14867)
T1 sequence (P14867 whole entry): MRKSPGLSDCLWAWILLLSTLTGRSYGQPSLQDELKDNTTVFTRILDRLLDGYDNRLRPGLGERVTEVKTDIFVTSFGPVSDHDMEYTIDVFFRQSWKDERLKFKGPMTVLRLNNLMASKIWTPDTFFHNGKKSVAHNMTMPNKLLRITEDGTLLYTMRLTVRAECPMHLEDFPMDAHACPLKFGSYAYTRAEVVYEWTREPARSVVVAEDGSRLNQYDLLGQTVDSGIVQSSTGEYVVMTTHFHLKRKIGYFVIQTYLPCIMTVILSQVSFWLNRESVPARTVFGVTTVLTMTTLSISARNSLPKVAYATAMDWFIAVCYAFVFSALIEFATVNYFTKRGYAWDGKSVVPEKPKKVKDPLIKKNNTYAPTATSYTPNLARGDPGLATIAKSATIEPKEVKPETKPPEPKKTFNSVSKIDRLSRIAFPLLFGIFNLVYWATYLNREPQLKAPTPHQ

[2] = target: Gamma-aminobutyric acid receptor subunit alpha-4 (Homo sapiens, UniProt P48169)
Sequence of Gamma-aminobutyric acid receptor subunit alpha-4 (P48169 whole entry): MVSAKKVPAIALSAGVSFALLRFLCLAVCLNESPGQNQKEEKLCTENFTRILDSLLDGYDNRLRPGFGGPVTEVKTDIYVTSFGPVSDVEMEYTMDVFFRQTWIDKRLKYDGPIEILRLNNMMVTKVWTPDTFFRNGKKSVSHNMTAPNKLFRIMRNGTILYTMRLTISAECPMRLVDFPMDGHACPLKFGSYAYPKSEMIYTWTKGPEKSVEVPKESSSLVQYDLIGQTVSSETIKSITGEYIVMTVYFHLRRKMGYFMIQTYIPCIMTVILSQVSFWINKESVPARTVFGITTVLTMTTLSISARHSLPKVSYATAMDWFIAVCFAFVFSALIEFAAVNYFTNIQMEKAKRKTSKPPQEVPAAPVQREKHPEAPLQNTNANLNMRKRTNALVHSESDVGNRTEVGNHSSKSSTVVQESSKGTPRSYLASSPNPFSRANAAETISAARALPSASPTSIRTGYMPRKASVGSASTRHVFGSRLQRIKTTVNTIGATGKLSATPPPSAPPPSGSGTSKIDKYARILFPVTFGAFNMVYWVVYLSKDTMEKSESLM

O=c1c2cnc3ccccc3c2[nH]n1-c1ccccc1
Ki [1]: 0.11 nM
Ki [2]: 11.9 nM

Cc1nnc2ccc(-c3cccc(C(F)(F)F)c3)nn12
Ki [1]: 65 nM
Ki [2]: > 10000 nM

COC(=O)c1cc2c(cn1)[nH]c1ccccc12
Ki [1]: 0.5 nM
Ki [2]: 640 nM

COCc1c(C(=O)OC(C)C)ncc2[nH]c3ccc(OCc4ccccc4)cc3c12
Ki [2]: 1060 nM

CCOC(=O)c1cc2c(cn1)[nH]c1ccccc12
Ki [1]: 0.6 nM

O=c1c2cnc3ccccc3c2[nH]n1-c1ccc(Cl)cc1
Ki [1]: 0.26 nM
Ki [2]: 59 nM

COc1ccc(-n2[nH]c3c(cnc4ccccc43)c2=O)cc1 [2-(4-Methoxy-phenyl)-2,5-dihydro-pyrazolo[4,3-c]quinolin-3-one (CGS 9895)]
Ki [1]: 0.09 nM
Ki [2]: 4 nM

CC(C)(C)OC(=O)c1ncn2c1C1CCCN1C(=O)c1c(Br)cccc1-2 (centres undefined) [8-Bromo-7-oxo-3b,4,5,6-tetrahydro-7H-2,6a,11b-triaza-benzo[g]cyclopenta[e]azulene-3-carboxylic acid tert-butyl ester]
Ki [1]: 0.45 nM
Ki [2]: 36 nM and 22.5 nM

Cc1ccc(-c2nc3ccc(C)cn3c2CC(=O)N(C)C)cc1 [Ambien]
Ki [2]: > 10000 nM

CNC(=O)c1cc2c(cn1)[nH]c1ccccc12 [CAS_4375]
Ki [1]: 160 nM
Ki [2]: > 10000 nM

CCCOC(=O)c1cc2c(cn1)[nH]c1ccccc12 [CAS_123662]
Ki [1]: 7.1 nM
Ki [2]: 922 nM

COc1ccc(-n2[nH]c3c4c(ncc3c2=O)CCCCC4)cc1 [CGS-20625]
Ki [1]: 0.15 nM
Ki [2]: 22.4 nM and 77 nM

CCc1c(C(=O)OC)ncc2[nH]c3cc(OC)c(OC)cc3c12 [NSC_104999]
Ki [1]: 7.5 nM
Ki [2]: 11.3 nM and 20 nM

CCOC(=O)c1ncn2c1CN(C)C(=O)c1cc(N=[N+]=[N-])ccc1-2 [RO-154513]
Ki [1]: 8.1 nM
